Patent publication US10301292B2, “Bicyclic compound” (Takeda Pharmaceutical Company Limited, priority 2014, dated 2019)

What was measured:
human ACC1 = target: T1, human ACC1 (Homo sapiens, UniProt Q13085); assay: Measurement of ACC1 inhibitory activity (Malonyl-CoA production, RapidFire-mass spectrometry); assay type: biochemical; settings: 10 μM of the test compound, recombinant human ACC1; for inhibition at 10 µM: read-out: ACC1 inhibitory rate (%) at 10 μM
T1 construct: His tag (from vector pFAST-BacHTc; protein captured on Ni-NTA) (N); made in house; host or cells: SF-9 insect cells, recombinant baculovirus BAC-ACC1
Method: (1) Cloning of Human ACC1 Gene and Preparation of Recombinant Baculovirus
Human ACC1 gene was cloned by PCR using a human liver cDNA library (Clontech) as a template and Primer 1 and Primer 2 shown below. Primer 1 and Primer 2 were prepared by adding SalI, NotI restriction enzyme recognition sequences based on the information of the base sequence of human ACC1 gene (Genbank Accession U19822).
PCR was performed using Pyrobest DNA polymerase (TAKARA BIO INC.). The obtained PCR product was cloned to pT7 Blue vector (Novagen) and after confirmation of the base sequence, digested with restriction enzymes SalI and XbaI. The obtained DNA fragment was inserted into pFAST-BacHTc (Invitrogen) digested with restriction enzymes SalI and XbaI to give expression plasmid ACC1/pFAST-BacHTc.
Using the expression plasmid ACC1/pFAST-BacHTc and BAC-TO-BAC Baculovirus Expression System (Invitrogen), virus stock BAC-ACC1 of recombinant Baculovirus was prepared.
(2) Preparation of ACC1 Protein
SF-9 cells (Invitrogen) were inoculated to a medium (10 L) for insect cells (Sf-900IISFM medium (Invitrogen) containing 5% fetal bovine serum (Trace), 50 mg/L Gentamicin (Wako Pure Chemical Industries, Ltd.), 0.1% Pluronic F-68 (Invitrogen)) at 1.0×10^6 cells/mL, and cultured with shaking in Wave Bioreactor (GE Healthcare) at 27° C., 20 rpm, rocking angle 10°, oxygen concentration 30%.
On day 2 of the culture, recombinant Baculovirus BAC-ACC1 was added, and the cells were cultured for 3 days. The culture medium was centrifuged at 4000×g for 10 min to give virus-infected cells. The cells were washed with phosphate buffered saline (Invitrogen) and centrifuged under the same conditions. The obtained cells were cryopreserved at −80° C.
The cryopreserved cells were thawed in ice and suspended in 800 mL of 25 mM HEPES buffer (pH 7.5) containing 10% Glycerol, 0.3 M NaCl, 1 mM EDTA, 25 mM Sodium β-Glycerophosphate and 1 mM Sodium Orthovanadate, and supplemented with Complete Protease Inhibitor (Roche). The obtained suspension was homogenized two times in a polytron homogenizer (Kinematica) at 20,000 rpm for 20 sec. The obtained cell disruption solution was clarified by centrifugation at 186,000×g for 60 min and the supernatant was passed through Ni-NTA Superflow Cartridges (5 mL) (QUIAGEN). Furthermore, it was washed with 25 mM HEPES buffer (pH 7.5) containing 20 mM Imidazole, 0.3 M NaCl, and eluted with 25 mM HEPES buffer (pH 7.5) containing 250 mM Imidazol, 0.3 M NaCl. The eluate was concentrated by Amicon Ultra-15 (Nihon Millipore K.K.) having a fraction molecular weight of 50K. The obtained concentrate was subjected to gel filtration with 50 mM HEPES buffer (pH 7.5) containing 10 mM MgCl2, 2 mM dithiothreitol, 10 mM tripotassium citrate, 0.3 M NaCl by using HiLoad 26/60 Superdex200 prep grade gel filtration column (GE Healthcare) to give ACC1. The obtained ACC1 was cryopreserved at −80° C.
(3) Measurement of ACC1 Inhibitory Activity
ACC1 obtained in the above-mentioned (2) was diluted with an enzyme reaction buffer (50 mM HEPES (pH 7.5), 10 mM MgCl2, 10 mM Tripottasium Citrate, 2 mM Dithiothreitol, 0.001% Fatty acid free BSA) to a concentration of 0.2 μg/ml, and the mixture was added to each well of a 384 well assay plate by 10 μl. A test compound dissolved in dimethyl sulfoxide (DMSO) was diluted with an enzyme reaction buffer and the resulting solution (5 μl) was added to each well. The mixture was incubated at room temperature for 60 min. Then, a substrate solution (50 mM KHCO3, 200 μM ATP, 200 μM Acetyl-CoA, 5 μl) was added to each well, and the mixture was reacted at room temperature for 30 min. The reaction was quenched by adding a reaction quenching liquid (1.3% formic acid, 0.2 μM Malonyl-^13C3-CoA) by 60 μL each to the obtained reaction mixtures (test compound addition group).
In addition, a reaction was performed in the same manner as above and without adding the test compound (test compound non-addition group). […]

HCT116 cells = assay: Growth inhibitory activity on HCT116 cell (CellTiter-Glo); assay type: cell-based; settings: table head: 10 μM (text b2498: 1 μM), 3 days incubation; for inhibition at 10 µM: Homo sapiens, HCT-116, 72 h, read-out: HCT116 cell proliferation inhibitory rate (%) at 10 μM
Method: The growth inhibitory activity of the compound on HCT116 cell was evaluated by the following method.
HCT116 cells were seeded in a 384 well blackplate at 900 cells/30 μL/well, and maintained in an RPMI medium (Wako)) containing an assay medium (2% fetal bovine serum, 50 Unit/mL penicillin, 50 μg/mL streptomycin (Invitrogen). The next day, a test compound dissolved in dimethyl sulfoxide (DMSO) was diluted with the assay medium, and the obtained compound solution was added by 10 μL to each well of a plate containing HCT116 cells and incubated at 37° C., 5% CO2 (test compound addition group).
A similar reaction was performed without adding a test compound (test compound non-addition group).
Furthermore, a similar reaction was performed under the conditions without adding HCT116 cell and a test compound (control group).
After 3 days, 20 μL of a CellTiter-Glo reagent (Promega KK) was added to the well, and the mixture was stirred for 10 min. Thereafter, the luminescence value of each well was measured by the EnVision™ multilabel counter (Perkin Elmer Inc.).
The HCT116 cell proliferation inhibitory rate (%) of the test compound was determined by the following calculation formula. (1−(luminescence of test compound addition group−luminescence of control group)÷(luminescence of test compound nonaddition group−luminescence of control group))×100

Row | Compound | inhibition at 10 µM (human ACC1) [%] | inhibition at 10 µM (HCT116 cells) [%] | other results
1 | CC(=O)NC(C)c1ccc2nc(N3CC(Oc4cccc(OCC5CC5)c4)C3)oc2c1 (centres unmarked) [Example 1, N-(1-(2-(3-(3-(cyclopropylmethoxy)phenoxy)azetidin-1-yl)-1,3-benzoxazol-6-yl)ethyl)acetamide] | 100 |  | HCT116 cell proliferation inhibitory rate (%) at 10 μM (HCT116 cells): 12%
2 | CC(=O)NC(C)c1ccc2nc(N3CC(Oc4cccc(OCC5CC5)c4)C3)oc2c1 (centres unmarked) [Example 1b, N-(1-(2-(3-(3-(cyclopropylmethoxy)phenoxy)azetidin-1-yl)-1,3-benzoxazol-6-yl)ethyl)acetamide] |  |  | ACC1 inhibitory rate (%) at 10 μM (human ACC1; 10 µM): 96%; HCT116 cell proliferation inhibitory rate (%) at 10 μM (HCT116 cells): 32%
3 | CC(=O)NC(C)c1ccc2nc(-c3ccc(Oc4cccc(OCC5CC5)c4)cc3)oc2c1 (centres unmarked) [Example 8, N-(1-(2-(4-(3-(cyclopropylmethoxy)phenoxy)phenyl)-1,3-benzoxazol-6-yl)ethyl)acetamide] | 95 | 42 | 
4 | CC(=O)NC(C)c1ccc2nc(-c3ccc(Oc4cccc(OCC5CC5)c4)cn3)oc2c1 (centres unmarked) [Example 9, N-(1-(2-(5-(3-(cyclopropylmethoxy)phenoxy)pyridin-2-yl)-1,3-benzoxazol-6-yl)ethyl)acetamide] | 99 | 45 | 
5 | CC(=O)NC(C)c1ccc2nc(-c3ccc(Oc4cccc(OCC5CC5)c4)cn3)oc2c1 (centres unmarked) [Example 9b, N-(1-(2-(5-(3-(cyclopropylmethoxy)phenoxy)pyridin-2-yl)-1,3-benzoxazol-6-yl)ethyl)acetamide] |  |  | ACC1 inhibitory rate (%) at 10 μM (human ACC1): 99%; HCT116 cell proliferation inhibitory rate (%) at 10 μM (HCT116 cells): 29%
6 | CCCOc1cccc(Oc2ccc(-c3nc4ccc(C(C)NC(C)=O)cc4o3)nc2)c1 (centres unmarked) [Example 12, N-(1-(2-(5-(3-propoxyphenoxy)pyridin-2-yl)-1,3-benzoxazol-6-yl)ethyl)acetamide] | 94 |  | 
7 | CCCCOc1cccc(Oc2ccc(-c3nc4ccc(C(C)NC(C)=O)cc4o3)nc2)c1 (centres unmarked) [Example 13, N-(1-(2-(5-(3-butoxyphenoxy)pyridin-2-yl)-1,3-benzoxazol-6-yl)ethyl)acetamide] | 86 | 19 | 
8 | CCCCCc1cccc(OC2CN(c3nc4ccc(C(C)NC(C)=O)cc4o3)C2)c1 (centres unmarked) [Example 29, N-(1-(2-(3-(3-pentylphenoxy)azetidin-1-yl)-1,3-benzoxazol-6-yl)ethyl)acetamide] | 82 |  | 
9 | CC(=O)NC(C)c1ccc2oc(-c3ccc(Oc4cccc(OCC5CC5)c4)cn3)cc2c1 (centres unmarked) [Example 31, N-(1-(2-(5-(3-(cyclopropylmethoxy)phenoxy)pyridin-2-yl)-1-benzofuran-5-yl)ethyl)acetamide] | 98 | 42 | 
10 | CC(=O)NC(C)c1ccc2cc(-c3ccc(Oc4cccc(OCC5CC5)c4)cn3)oc2c1 (centres unmarked) [Example 35, N-(1-(2-(5-(3-(cyclopropylmethoxy)phenoxy)pyridin-2-yl)-1-benzofuran-6-yl)ethyl)acetamide] | 94 | 41 | 
11 | CC(=O)NC(C)c1ccc2c(c1)CC(c1ccc(Oc3cccc(OCC4CC4)c3)cn1)O2 (centres unmarked) [Example 36, N-(1-(2-(5-(3-(cyclopropylmethoxy)phenoxy)pyridin-2-yl)-2,3-dihydro-1-benzofuran-5-yl)ethyl)acetamide] | 100 |  | 
12 | CC(=O)NC(C)c1ccc2c(c1)CC(c1ccc(Oc3cccc(OCC4CC4)c3)cn1)O2 (centres unmarked) [Example 36b, N-(1-(2-(5-(3-(cyclopropylmethoxy)phenoxy)pyridin-2-yl)-2,3-dihydro-1-benzofuran-5-yl)ethyl)acetamide] |  |  | ACC1 inhibitory rate (%) at 10 μM (human ACC1; 10 µM): 101%
13 | CC(=O)NC(C)c1ccc2nc(-c3ccc(Oc4cccc(OCC5CC5)c4)nc3)oc2c1 (centres unmarked) [Example 37, N-(1-(2-(6-(3-(cyclopropylmethoxy)phenoxy)pyridin-3-yl)-1,3-benzoxazol-6-yl)ethyl)acetamide] | 101 | 44 | 
14 | CC(=O)NC(C)c1ccc2sc(N3CC(Oc4cccc(OCC5CC5)c4)C3)nc2c1 (centres unmarked) [Example 44, N-(1-(2-(3-(3-(cyclopropylmethoxy)phenoxy)azetidin-1-yl)-1,3-benzothiazol-5-yl)ethyl)acetamide] | 100 | 14 | 
15 | CC(=O)NC(C)c1ccc2nc(-c3ncc(Oc4cccc(OCC5CC5)c4)cc3C)oc2c1 (centres unmarked) [Example 47, N-(1-(2-(5-(3-(cyclopropylmethoxy)phenoxy)-3-methylpyridin-2-yl)-1,3-benzoxazol-6-yl)ethyl)acetamide] | 82 |  | 
16 | CC(=O)NC(C)c1cc2cc(-c3ccc(Oc4cccc(OCC5CC5)c4)cc3)ccc2o1 (centres unmarked) [Example 52, N-(1-(5-(4-(3-(cyclopropylmethoxy)phenoxy)phenyl)-1-benzofuran-2-yl)ethyl)acetamide] | 94 | 20 | 
17 | CC(=O)NC(C)c1ccc2cn(-c3ccc(Oc4cccc(OCC5CC5)c4)cc3)nc2c1 (centres unmarked) [Example 56, N-(1-(2-(4-(3-(cyclopropylmethoxy)phenoxy)phenyl)-2H-indazol-6-yl)ethyl)acetamide] | 94 |  | 
18 | CC(=O)NC(C)c1ccc2cc(-c3ccc(Oc4cccc(OCC5CC5)c4)nc3)oc2c1 (centres unmarked) [Example 67, N-(1-(2-(6-(3-(cyclopropylmethoxy)phenoxy)pyridin-3-yl)-1-benzofuran-6-yl)ethyl)acetamide] | 97 | 38 | 
19 | CC(=O)NC(C)c1ccc2nc(-c3ccc(Oc4cccc(OCC5CC5)c4)cc3)oc2c1C (centres unmarked) [Example 93, N-(1-(2-(4-(3-(cyclopropylmethoxy)phenoxy)phenyl)-7-methyl-1,3-benzoxazol-6-yl)ethyl)acetamide] | 94 |  | 
20 | CC(NC(N)=O)c1ccc2nc(-c3ccc(Oc4cccc(OCC5CC5)c4)nn3)oc2c1 (centres unmarked) [Example 110, 1-(1-(2-(6-(3-(cyclopropylmethoxy)phenoxy)pyridazin-3-yl)-1,3-benzoxazol-6-yl)ethyl)urea] | 98 |  | 
